The source of these data is patent US7241812B2, “Methods and compositions for modulating sphingosine-1-phosphate (S1P) receptor activity” (Praecis Pharmaceuticals, Inc., priority 2004, dated 2007).

The target of one assay is T1, S1P3 receptor (Homo sapiens, UniProt Q99500).
T1 construct: expressed in transfected cells; host or cells: HEK 293 T cells (crude membrane preparation)
Kind of assay: Binding to S1P3 receptor, [33P]sphingosine 1-phosphate displacement on membranes of transfected HEK 293 T cells. The note with it: 2.5 pM [33P]sphingosine 1-phosphate, 60 minutes at room temperature. The method, then:
(§1) The ability of several of the compounds described herein to bind to the S1P1 or S1P3 receptor was also tested as follows.
(§2) For the membrane preparation, plasmid DNA was transfected into HEK 293 T cells using the FuGENE 6 transfection protocol (publicly available by Roche). Briefly, subconfluent monolayers of HEK 293 T cells were transfected with the DNA mixture containing FuGENE 6 (using a 1:3 ratio). The dishes containing the cells were then placed in a tissue culture incubator (5% CO2, 37° C.). The cells were harvested 48 hours after addition of the DNA by scraping in HME buffer (in mM: 20 HEPES, 5 MgCl2, 1 EDTA, pH 7.4, 1 mM PMSF) containing 10% sucrose on ice, and disrupted using a Dounce homogenizer. After centrifugation at 800×g, the supernatant was diluted with HME without sucrose and centrifuged at 17,000×g for 1 hour. This crude membrane pellet was resuspended in HME with sucrose, aliquoted, and snap-frozen by immersion in liquid nitrogen. The membranes were stored at −70 C. Protein concentration was determined spectroscopically by Bradford protein assay.
(§3) For the binding assay, [^33P]sphingosine 1-phosphate (obtained from American Radiolabeled Chemicals, Inc) was added to membranes in 200 μl in 96-well plates with assay concentrations of 2.5 pM [^33P]sphingosine 1-phosphate, 4 mg/ml BSA, 50 mM HEPES, pH 7.5, 100 mM NaCl, 5 mM MgCl2, and 5 μg of protein. Binding was performed for 60 minutes at room temperature with gentle mixing and terminated by collecting the membranes onto GF/B filter plates. After drying the filter plates for 10 minutes, 50 μl of Microscint 40 was added to each well, and filter-bound radionuclide was measured on a Packard Top Count. Nonspecific binding was defined as the amount of radioactivity remaining in the presence of excess of unlabeled S1P.

A further assay deals with T2, S1P1 receptor (Homo sapiens, UniProt P21453).
T2 construct: expressed in transfected cells; host or cells: HEK 293 T cells (crude membrane preparation)
Kind of assay: Binding to S1P1 receptor, [33P]sphingosine 1-phosphate displacement on membranes of transfected HEK 293 T cells. The note with it: 2.5 pM [33P]sphingosine 1-phosphate, 60 minutes at room temperature. The method, then:
as §1, §2, §3

T2 sequence (P21453 whole entry): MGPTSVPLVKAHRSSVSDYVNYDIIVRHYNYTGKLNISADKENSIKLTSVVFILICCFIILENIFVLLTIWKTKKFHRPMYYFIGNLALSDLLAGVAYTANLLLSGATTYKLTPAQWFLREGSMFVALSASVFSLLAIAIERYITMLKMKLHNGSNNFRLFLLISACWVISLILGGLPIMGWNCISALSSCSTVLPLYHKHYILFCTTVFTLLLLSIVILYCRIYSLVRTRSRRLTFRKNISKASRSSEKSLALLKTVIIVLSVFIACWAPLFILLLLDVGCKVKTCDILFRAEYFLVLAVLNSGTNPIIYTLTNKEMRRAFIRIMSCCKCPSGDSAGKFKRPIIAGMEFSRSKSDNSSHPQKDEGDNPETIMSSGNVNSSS
T1 sequence (Q99500 whole entry): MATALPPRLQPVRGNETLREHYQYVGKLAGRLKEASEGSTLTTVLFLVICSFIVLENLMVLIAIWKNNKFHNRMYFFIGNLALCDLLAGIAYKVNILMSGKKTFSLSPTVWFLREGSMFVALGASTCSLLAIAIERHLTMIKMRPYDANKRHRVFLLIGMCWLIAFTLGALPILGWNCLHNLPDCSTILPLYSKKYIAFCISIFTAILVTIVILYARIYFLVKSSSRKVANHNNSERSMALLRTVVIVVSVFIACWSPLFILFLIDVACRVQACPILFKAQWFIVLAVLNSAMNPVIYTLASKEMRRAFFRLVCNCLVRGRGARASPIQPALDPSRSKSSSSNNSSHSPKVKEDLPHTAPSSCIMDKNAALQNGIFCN

As to `CCCCOc1ccc(Oc2ccc(NC(=O)[C@@](C)(N)CO)cc2)cc1` [compound 135], the values for the IC50 at S1P3 receptor and at S1P1 receptor were 2500 nM and 22.1 nM, respectively.
For `C[C@](N)(CO)C(=O)Nc1ccc(OCc2ccc(-c3ccccc3)cc2)cc1` [compound 153], the concentration for half-maximal inhibition (IC50) (as a rule, the concentration that gives 50% inhibition) on S1P3 receptor came to 285 nM; at S1P1 receptor it was 0.8 nM.
As to `C[C@](N)(CO)C(=O)Nc1ccc(Oc2ccc(Cl)cc2)cc1` [compound 138], the values for the half-maximal inhibitory concentration (IC50) at S1P3 receptor and at S1P1 receptor were more than 10000 nM and 3800 nM, respectively.
In the case of `CCc1ccc(-c2ccc(CCOc3ccc(NC(=O)[C@@](C)(N)CO)cc3)cc2)cc1` [compound 46], the concentration for half-maximal inhibition (IC50) at S1P3 receptor was determined as 5000 nM; on S1P1 receptor it was 250 nM.
Consider `CCCCCCCCc1ccc(CCC2(N)COP(=O)(O)OC2)cc1` (centres unmarked) [compound 45], for which the figures for the IC50 on S1P3 receptor and on S1P1 receptor were 343 nM and 2.4 nM, respectively.
Turning to `CC(C)Oc1cccc(-c2ccc(NC(=O)[C@@](C)(N)CO)cc2)c1` [compound 145], the half-maximal inhibitory concentration (IC50) turned out to be 2000 nM on S1P3 receptor and 3.4 nM on S1P1 receptor.
Consider `COc1ccc(CCOc2ccc(NC(=O)[C@@](C)(N)CO)cc2)cc1OC` [compound 34], for which the 50% inhibitory concentration (IC50) on S1P3 receptor is more than 10000 nM; on S1P1 receptor, 1000 nM.
For `CCCCCCCCc1ccc(OC2CN[C@H](CO)C2)cc1` (some centres unmarked) [compound 137] the same measures were more than 10000 nM and 4000 nM.
Turning to `Cc1cc(NC(=O)[C@@](C)(N)CO)ccc1Oc1ccccc1` [compound 124], the IC50 on S1P3 receptor was found to be 164 nM; on S1P1 receptor, 15 nM.
As to `Cc1ccccc1-c1ccc(CCOc2ccc(NC(=O)[C@@](C)(N)CO)cc2)cc1` [compound 152], the IC50 on S1P3 receptor and at S1P1 receptor was more than 10000 nM each time.
In the case of `CCCCc1ccc(OC[C@](C)(N)C(=O)Nc2ccc(Oc3ccc(CCCC)cc3)cc2)cc1` [compound 132], the IC50 was found to be 3500 nM on S1P3 receptor and 167 nM at S1P1 receptor.
As for `C[C@](N)(CO)c1ncc(-c2ccc(OCCc3ccc(-c4ccccc4)cc3)cc2)[nH]1` [compound 148], the IC50 on S1P3 receptor and on S1P1 receptor was more than 10000 nM in each case.
As to `CCCOc1cccc(-c2ccc(NC(=O)[C@@](C)(N)CO)cc2)c1` [compound 144], the figures for the IC50 on S1P3 receptor and at S1P1 receptor were more than 10000 nM and 2400 nM, respectively.
Regarding `C[C@](N)(CO)C(=O)Nc1ccc(Oc2ccccc2)cc1` [compound 129], the IC50 at S1P3 receptor was 6330 nM; on S1P1 receptor, 17.9 nM.
For the compound `CCc1ccc(OC[C@](C)(N)C(=O)Nc2ccc(Oc3ccc(CC)cc3)cc2)cc1` [compound 131], the results for the half-inhibitory concentration (IC50) at S1P3 receptor and on S1P1 receptor were 833 nM and 218 nM, respectively.
Taken in the same sequence, the figures for `CC(COc1ccc(NC(=O)[C@@](C)(N)CO)cc1)c1ccc(-c2ccccc2)c(F)c1` (some centres unmarked) [compound 160] were more than 1000 nM and 500 nM.
Consider `COc1ccc(CCCCOc2ccc(NC(=O)[C@@](C)(N)COP(=O)(O)O)cc2)cc1` [compound 110], for which the IC50 on S1P3 receptor stood at 2150 nM; on S1P1 receptor it was 23 nM.
Consider `C[C@](N)(CO)C(=O)Nc1ccc(OCCc2cccc(-c3ccccc3)c2)cc1` [compound 155], for which the half-inhibitory concentration (IC50) on S1P3 receptor and on S1P1 receptor was more than 10000 nM each time.
Consider `CCCCCNC(=O)c1ccc(NC(=O)[C@@H](N)[C@@H](C)O)cc1` [compound 128], for which the concentration for half-maximal inhibition (IC50) at S1P3 receptor amounted to 160 nM; at S1P1 receptor it was 0.84 nM.
Regarding `CCOc1ccc(-c2ccc(CCOc3ccc(NC(=O)[C@@](C)(N)CO)cc3)cc2)cc1` [compound 47], the half-inhibitory concentration (IC50) at S1P3 receptor turned out to be 5000 nM; at S1P1 receptor it was 23 nM.
On to `C[C@](N)(CO)C(=O)Nc1ccc(-c2csc(-c3ccc(-c4ccccc4)cc3)n2)cc1` [compound 154], for which the IC50 is more than 10000 nM at S1P3 receptor and 21 nM on S1P1 receptor.
Taken in the same sequence, the figures for `C[C@](N)(COc1ccccc1)C(=O)Nc1ccc(Oc2ccccc2)cc1` [compound 130] were more than 10000 nM and 90 nM.
For `CCCCCCCc1ccc(C(=O)N[C@@H](C)CO)cc1` [compound 127], the half-maximal inhibitory concentration (IC50) is 59 nM on S1P3 receptor and 56 nM at S1P1 receptor.
Regarding `C[C@](N)(CO)C(=O)Nc1ccc(Oc2ccc(F)cc2)cc1` [compound 139], the half-maximal inhibitory concentration (IC50) on S1P3 receptor stood at 220 nM; on S1P1 receptor, 2.5 nM.
As for `CCc1ccc(Oc2ccc(NC(=O)[C@@](C)(N)CO)cc2)cc1` [compound 134], the half-maximal inhibitory concentration (IC50) at S1P3 receptor amounted to 1200 nM; on S1P1 receptor, 114 nM.
Consider `COc1cccc(Oc2ccc(NC(=O)[C@@](C)(N)CO)cc2)c1` [compound 59], for which the concentration for half-maximal inhibition (IC50) stood at 50 nM on S1P3 receptor and 3.5 nM on S1P1 receptor.
Taken in the same sequence, the figures for `CC(N)(CO)C(=O)Nc1ccc(OCCCCc2ccc(C(F)(F)F)cc2)cc1` (centres unmarked) [compound 141] were 1040 nM and 12 nM.
Regarding `C[C@](N)(CO)C(=O)Nc1ccc(OCCc2ccc(-c3ccncc3)cc2)cc1` [compound 156], the IC50 on S1P3 receptor is 3250 nM; on S1P1 receptor, 6 nM.
For the compound `C[C@](N)(CO)C(=O)Nc1ccc(OCCc2ccc(-c3ccc(Cl)cc3)cc2)cc1` [compound 49], the IC50 was found to be 8000 nM on S1P3 receptor and 240 nM on S1P1 receptor.
For the compound `C[C@](N)(CO)C(=O)Nc1ccc(-c2cccc(OCc3ccccc3)c2)cc1` [compound 147], the concentration for half-maximal inhibition (IC50) on S1P3 receptor was 130 nM; at S1P1 receptor it was 166 nM.
As for `CCCCCCCN(C)C(=O)c1ccc(NC(=O)[C@@H](N)[C@@H](C)O)cc1` [compound 126], the IC50 on S1P3 receptor and at S1P1 receptor was more than 10000 nM in each case.
In the case of `C[C@](N)(COP(=O)(O)O)C(=O)Nc1ccc(-c2cnn(Cc3ccccc3)c2)cc1` [compound 105], the results for the IC50 at S1P3 receptor and at S1P1 receptor were more than 10000 nM and 2000 nM, respectively.
`C[C@](N)(CO)C(=O)Nc1ccc(OCCc2ccc(-c3ccoc3)cc2)cc1` [compound 157] came in with a concentration for half-maximal inhibition (IC50) at S1P1 receptor of 1.3 nM.
In turn, `CCCCCCNC(=O)c1ccc(NC(=O)[C@@H](N)[C@@H](C)O)cc1` [compound 125] had a 50% inhibitory concentration (IC50) at S1P1 receptor of 2000 nM.
For the compound `COc1cccc(-c2ccc(NC(=O)[C@@](C)(N)CO)cc2)c1` [compound 142], the half-maximal inhibitory concentration (IC50) worked out at 315 nM on S1P3 receptor and 8 nM on S1P1 receptor.
For the compound `CCCCc1ccc(Oc2ccc(NC(=O)[C@@](C)(N)CO)cc2)cc1` [compound 133], the IC50 is more than 10000 nM at S1P3 receptor and 650 nM on S1P1 receptor.
Take `CC(C)c1ccc(-c2ccc(CCOc3ccc(NC(=O)[C@@](C)(N)CO)cc3)cc2)cc1` [compound 150]: the IC50 at S1P3 receptor was 5030 nM; on S1P1 receptor it was 0.55 nM.
As to `C[C@](N)(CO)C(=O)Nc1ccc(OCCc2ccc(-c3cccs3)cc2)cc1` [compound 158], the values for the half-inhibitory concentration (IC50) on S1P3 receptor and at S1P1 receptor were more than 1000 nM and 150 nM, respectively.
